Test results as given in US20260007601A1, “IONIZABLE CATIONIC LIPID COMPOUND AND COMPOSITION FOR DELIVERING NUCLEIC ACID AND USE THEREOF” (BEIJING YOUCAREKECHUANG PHARMACEUTICAL TECHNOLOGY CO., LTD., priority 2023, published 2026).

Experiments:
female BALB/C mice = experiment: Mouse in vivo imaging of Fluc-mRNA LNP formulations; parameters: average radiation intensity (mRNA expression): unit not given here; conditions: for average radiation intensity (mRNA expression): 10 μg Fluc-mRNA LNP intramuscularly
Protocol: The LNP formulation containing 10 μg Fluc-mRNA (prepared according to Example 4) was injected intramuscularly into female BALB/C mice aged 4 to 6 weeks and weighing 17 to 19 g, and the mice were intraperitoneally injected with fluorescent imaging substrates at specific time points (6 h, 24 h, 48 h and 7 d) after administration. The mice moved freely for 5 minutes, and then the average radiation intensity (corresponding to the fluorescence expression intensity) of the protein expressed by the mRNA carried by the LNP in the mice was detected by IVIS Spectrum small animal in vivo imager. The test results are shown in Tables 14 to 17 and FIGS. 12 to 14.

[1] = Particle size and polydispersity index (PDI) of nanolipid particles, dynamic light scattering; type: physicochemical; conditions: LNP formulation prepared from the named cationic lipid, 25° C
Protocol: The particle size and polydispersity index (PDI) were determined by dynamic light scattering method using a Malvern laser particle size analyzer. 10 μL of liposome solution was diluted to 1 mL with RNase-free deionized water and added to a sample pool. Each sample was measured three times. The measurement conditions were: 90° scattering angle, 25° C.

293T cells [2] = experiment: Fluorescence detection of Fluc-mRNA (cell transfection efficiency of LNP formulations); type: cell-based; conditions: for Relative light unit (RLU): LNP containing 0.3 μg Fluc-mRNA, 24 hours; for Multiples of values that equivalent to YK-201: RLU of YK-201 / RLU of the named lipid; for Multiples of values that equivalent to YK-202: RLU of YK-202 / RLU of the named lipid; for Multiples of values that equivalent to YK-209: RLU of YK-209 / RLU of the named lipid
Protocol: (§1) Cell recovery and passaging: 293T cells were recovered and cultured in culture dishes to the required cell number.
(§2) Plating: The cells in the culture dish were digested, counted, plated in a 96-well plate at 10,000 cells per well, or in a 12-well plate at 150,000 cells per well, and cultured overnight until the cells adhered to the wall.
(§3) Cell recovery and passage: The method was the same as in Example 3.
(§4) Plating: The method was the same as Example 3.
The LNP formulation containing 0.3 μg Fluc-mRNA (prepared according to Example 4, the LNP formulation carrier components were cationic lipids, neutral lipids, structured lipids and polymer-conjugated lipids at a molar ratio of 49:10:39.5:1.5, and the cationic lipids were cationic lipids listed in Table 1) was added to the cell culture medium of a 96-well plate, and cultured for 24 hours. After that, the corresponding reagents were added according to the instructions of the Gaussia Luciferase Assay Kit, and the fluorescence expression intensity of each well was detected by the IVIS fluorescence detection system. This experiment verified the transfection efficiency of the LNP formulation in the cell, and the specific detection results are shown in Tables 6-9.

293T cells [3] = experiment: Cell survival rate assay (CCK-8); type: cell-based; conditions: for Cell survival rate: LNP containing 1.5 μg Fluc-mRNA, 24 hours, CCK-8
Protocol: as §1, §2, §3, §4
The LNP formulations containing 1.5 μg Fluc-mRNA (prepared according to Example 4, the LNP formulation carrier components are cationic lipids, neutral lipids, structured lipids and polymer-conjugated lipids at a molar ratio of 49:10:39.5:1.5, wherein the cationic lipids are the cationic lipids listed in Table 1) and the Lipofectamine 3000 formulation were added to the cell culture medium of the 96-well plate, and the culture was continued for 24 hours. Then, 10 μL of CCK-8 solution was added to each well, and the culture plate was incubated in the incubator for 1 hour, and the absorbance at 450 nm was measured by a microplate reader.

[4] = Encapsulation rate, drug loading concentration and total RNA concentration detection (RiboGreen); type: physicochemical; conditions: for Drug loading concentration / Encapsulation rate / Total RNA concentration: LNP formulation of the named lipid
Text: Encapsulation rate is a key quality attribute of liposomes. It refers to the percentage of drug content encapsulated in the lipid bilayer to the total amount of drug added, which can reflect the degree of drug encapsulation in liposomes. The Chinese Pharmacopoeia stipulates that the encapsulation rate should usually not be less than 80%.
The drug loading capacity is the ratio of the amount of drug in the liposome to the total amount of drug and carrier in the liposome. The drug loading capacity directly affects the clinical application dose of the drug, so the larger the drug loading capacity, the more it can meet clinical needs. The drug loading concentration is proportional to the drug loading capacity, and the relative proportion of the drug loading concentration can represent the relative proportion of the drug loading capacity. The relative proportion of the total RNA concentration can represent the relative proportion of the amount of mRNA carried by the LNP formulation.
1×TE buffer, 0.1% Triton X-100 buffer, and RiboGreen reagent (1:200) and mRNA standard stock solution were prepared.
An appropriate amount of sample was taken and added to an appropriate amount of 1×TE buffer, which was diluted to a solution containing about 2.8 μg of the test sample per 1 mL. Then the sample was added to a 96-well plate, where 50 μL of the diluted test sample or mRNA standard stock solution was added to each well, and then added with 1×TE buffer and 0.1% Triton X-100 buffer. The samples were incubated at 37° C. for 10 minutes, and 100 μL of RiboGreen reagent (1:200) was added to each well of the 96-well plate. The plate was centrifuged, and read using an ELISA reader, and the data was processed.

Structure (SMILES): CCCCCCCCCCCOC(=O)CCCCCN(CCCCCCCC(=O)OC(CCCCCCC)CCCCCCC)CCN(C)CCO [YK-206]
- average radiation intensity (mRNA expression) (female BALB/C mice; 6 h): 2068900
- average radiation intensity (mRNA expression) (female BALB/C mice; 24 h): 1553050
- average radiation intensity (mRNA expression) (female BALB/C mice; 48 h): 500150
- average radiation intensity (mRNA expression) (female BALB/C mice; 7 d): 23015
- mRNA expression level in mice can reach, times that of ALC-0315 (female BALB/C mice; time point not stated): 13 times
- mRNA expression level in mice can reach, times that of HHMA (female BALB/C mice; time point not stated): 16 times
- mRNA expression level in mice can reach, times that of SM-102 (female BALB/C mice; time point not stated): 16 times
- mRNA expression level in mice can reach, times that of compound 21 (female BALB/C mice; time point not stated): 16 times
- mRNA expression level in mice can reach, times that of compound 23 (female BALB/C mice; time point not stated): 16 times
- PDI [1]: 18.8%
- Particle size [1]: 216 nm
- RLU / cell transfection efficiency, times that of ALC-0315 (293T cells [2]; Fluc-mRNA LNP): 9 times
- RLU / cell transfection efficiency, times that of HHMA (293T cells [2]; Fluc-mRNA LNP): 10 times
- RLU / cell transfection efficiency, times that of Lipofectamine 3000 (293T cells [2]; Fluc-mRNA LNP): 17 times
- RLU / cell transfection efficiency, times that of YK-009 (293T cells [2]; Fluc-mRNA LNP): 4 times
- RLU / cell transfection efficiency, times that of compound 21 (293T cells [2]; Fluc-mRNA LNP): 14 times
- RLU / cell transfection efficiency, times that of compound 23 (293T cells [2]; Fluc-mRNA LNP): 15 times
- fluorescence absorption value / cell transfection efficiency, times that of YK-205 (293T cells [2]; Fluc-mRNA LNP): 20.29 times
- Relative light unit (RLU) (293T cells [2]): 21058746 RLU
- Multiples of values that equivalent to YK-201 (293T cells [2]): 1.35
- Multiples of values that equivalent to YK-202 (293T cells [2]): 1.42
- Multiples of values that equivalent to YK-209 (293T cells [2]): 1.28
- Cell survival rate (293T cells [3]): 74.57%
- cell survival rate higher than that of ALC-0315 (293T cells [3]; difference of rates): 24.61%
- cell survival rate higher than that of HHMA (293T cells [3]; difference of rates): 9.01%
- cell survival rate higher than that of Lipofectamine 3000 (293T cells [3]; difference of rates): 51.52%
- cell survival rate higher than that of SM-102 (293T cells [3]; difference of rates): 6.02%
- cell survival rate higher than that of compound 21 (293T cells [3]; difference of rates): 5.55%
- cell survival rate higher than that of compound 23 (293T cells [3]; difference of rates): 4.47%
- drug loading concentration, times that of ALC-0315 [4]: 1.46 times
- drug loading concentration, times that of HHMA [4]: 1.24 times
- drug loading concentration, times that of SM-102 [4]: 1.50 times
- drug loading concentration, times that of YK-009 [4]: 1.42 times
- drug loading concentration, times that of compound 21 [4]: 1.69 times
- drug loading concentration, times that of compound 23 [4]: 1.84 times
- total RNA concentration, times that of ALC-0315 [4]: 1.12 times
- total RNA concentration, times that of HHMA [4]: 1.10 times
- total RNA concentration, times that of SM-102 [4]: 1.18 times
- total RNA concentration, times that of YK-009 [4]: 1.08 times
- total RNA concentration, times that of compound 21 [4]: 1.36 times
- total RNA concentration, times that of compound 23 [4]: 1.28 times
- Drug loading concentration [4]: 38.09 µg/mL
- Encapsulation rate [4]: 91.4%
- Total RNA concentration [4]: 41.69 µg/mL
- encapsulation rate higher than that of ALC-0315 ([4]; difference of rates): 28.60%
- encapsulation rate higher than that of HHMA ([4]; difference of rates): 30.90%
- encapsulation rate higher than that of SM-102 ([4]; difference of rates): 29.10%
- encapsulation rate higher than that of YK-009 ([4]; difference of rates): 28.40%
- encapsulation rate higher than that of compound 21 ([4]; difference of rates): 33.60%
- encapsulation rate higher than that of compound 23 ([4]; difference of rates): 36.20%

Structure (SMILES): CCCCCCCCCCCOC(=O)CCCCCN(CCCCCCCC(=O)OC(CCCCCCCC)CCCCCCCC)CCN(C)CCOC [YK-215]
- average radiation intensity (mRNA expression) (female BALB/C mice; 6 h): 50564
- average radiation intensity (mRNA expression) (female BALB/C mice; 24 h): 6815
- average radiation intensity (mRNA expression) (female BALB/C mice; 48 h): 3640
- average radiation intensity (mRNA expression) (female BALB/C mice; 7 d): 1020
- PDI [1]: 20.8%
- Particle size [1]: 219 nm
- Relative light unit (RLU) (293T cells [2]): 981165 RLU
- Multiples of values that equivalent to YK-201 (293T cells [2]): 29.03
- Multiples of values that equivalent to YK-202 (293T cells [2]): 30.53
- Multiples of values that equivalent to YK-209 (293T cells [2]): 21.46
- Ratio relative to SM-102 (293T cells [2]; RLU of the named lipid / RLU of SM-102, times that of SM-102): 0.59
- Cell survival rate (293T cells [3]): 44.59%
- Drug loading concentration [4]: 29.30 µg/mL
- Encapsulation rate [4]: 68.0%
- Total RNA concentration [4]: 43.13 µg/mL
